Laboratory results reported in patent US5624911A, “Ether derivatives of pseudopterosin” (The Regents of the University of California, priority 1995, dated 1997).
Read-outs that look alike come from different tables or passages of the source.

B1: IL-1-α: Recombinant Human Interleukin-1-α was obtained from R&D Systems, Minneapolis, Minn. (protein, UniProt P01583 113-271, looked up)
Interleukin-1 alpha: SAPFSFLSNVKYNFMRIIKYEFILNDALNQSIIRANDQYLTAAALHNLDEAVKFDMGAYKSSKDDAKITVILRISKTQLYVTAQDEDQPVLLKEMPEIPKTITGSETNLLFFWETHGTKNYFTSVAHPNLFIATKQDYWVCLAGGPPSITDFQILENQA
B2: human plasminogen: Plasminogen (from human plasma) was obtained from Athens Research and Technology, Athens, Ga. (protein, UniProt P00747 20-810, looked up)
Plasminogen: EPLDDYVNTQGASLFSVTKKQLGAGSIEECAAKCEEDEEFTCRAFQYHSKEQQCVIMAENRKSSIIIRMRDVVLFEKKVYLSECKTGNGKNYRGTMSKTKNGITCQKWSSTSPHRPRFSPATHPSEGLEENYCRNPDNDPQGPWCYTTDPEKRYDYCDILECEEECMHCSGENYDGKISKTMSGLECQAWDSQSPHAHGYIPSKFPNKNLKKNYCRNPDRELRPWCFTTDPNKRWELCDIPRCTTPPPSSGPTYQCLKGTGENYRGNVAVTVSGHTCQHWSAQTPHTHNRTPENFPCKNLDENYCRNPDGKRAPWCHTTNSQVRWEYCKIPSCDSSPVSTEQLAPTAPPELTPVVQDCYHGDGQSYRGTSSTTTTGKKCQSWSSMTPHRHQKTPENYPNAGLTMNYCRNPDADKGPWCFTTDPSVRWEYCNLKKCSGTEASVVAPPPVVLLPDVETPSEEDCMFGNGKGYRGKRATTVTGTPCQDWAAQEPHRHSIFTPETNPRAGLEKNYCRNPDGDVGGPWCYTTNPRKLYDYCDVPQCAAPSFDCGKPQVEPKKCPGRVVGGCVAHPHSWPWQVSLRTRFGMHFCGGTLISPEWVLTAAHCLEKSPRPSSYKVILGAHQEVNLEPHVQEIEVSRLFLEPTRKDIALLKLSSPAVITDKVIPACLPSPNYVVADRTECFITGWGETQGTFGAGLLKEAQLPVIENKVCNRYEFLNGRVQSTELCAGHLAGGTDSCQGDSGGPLVCFEKDKYILQGVTSWGLGCARPNKPGVYVRVSRFVTWIEGVMRNN

Legend:
[1] = tested on: edema induced by phorbol 12-myristate 13-acetate (PMA) in ears of mice; experiment: Mouse Ear Edema Assay (PMA-induced edema, topical); assay type: in vivo; details: for % Inhibition (of edema relative to PMA control) / Mean Edema (mgs ± SEM): topical, 50 μg/ear with PMA 2 μg/ear, 3 hours 20 minutes; for Mean Edema (mgs ± SEM): PMA controls 17.7 ± 0.6
Procedure: The pseudopterosin ethers were topically applied in acetone to the inside pinnae of the ears of mice in a solution containing the edema-causing irritant, phorbol 12-myristate 13-acetate (PMA). PMA alone (2 μg/ear) or in combination with 50 μg/ear of test compound was applied to the left ears (5 mice per treatment group) and acetone is applied to all right ears. After 3 hours 20 minutes incubation, the mice were sacrificed, the ears removed, and bores taken and weighed. Edema was measured by subtracting the weight of the right ear (acetone control) from the weight of the left ear (treated). Results were recorded as percent decrease (inhibition) or percent increase (potentiation) in edema relative to the PMA control group edema.

[2] = tested on: bovine articular cartilage explants; experiment: Inhibition of IL-1-induced Cartilage Degradation in the Presence of Human Plasminogen (35S glycosaminoglycan release); assay type: cell-based, bovine (calf); details: for % Inhibition @ 30 μM (Explant) / IC50: plasminogen 0.4 μM plus IL-1 0.5 ng/mL, 96 hours; for IC50: explant
Procedure: (§1) The ether derivatives were also tested to determine their usefulness in inhibiting degradation of cartilage. Bovine articular cartilage explants labeled with ^35 Sulfate were used to monitor chondrocyte-mediated cartilage degradation in the presence of plasminogen, at concentrations similar to that measured in synovial fluid (0.4 μM), cartilage is extremely sensitive to the effects of IL-1-stimulated degradation. Stimulated chondrocytes produce and activate plasminogen activator (uPA), causing conversion of plasminogen to plasmin. Plasmin is not only an effective activator of the MMP's, but also an effective proteoglycanase. Inhibitors were added to the assay concomitant with the cytokine IL-1, and their effect was monitored by measuring differences in ^35 S glycosaminoglycan release, as compared to appropriate controls.
(§2) Plasminogen (from human plasma) was obtained from Athens Research and Technology, Athens, Ga. Recombinant Human Interleukin-1-α was obtained from R&D Systems, Minneapolis, Minn. DMEM was obtained from Gibco, Grand Island, New York. ^35 S-Sodium Sulfate was obtained from Amersham, Arlington Heights, Ill.
(§3) Bovine (calf) radiocarpal joints were acquired from a local abbatoir immediately after sacrifice and transported on ice. The joints were then washed thoroughly and placed in ice containing approximately 25% Povidine (10% Povidone-lodine topical solution). The joints were then dissected in a sterile hood using good sterile technique. Media (DMEM containing 4.5 g/L D-Glucose and L-Glutamine, without sodium pyruvate) was supplemented with HEPES buffer and sodium bicarbonate, and the pH adjusted to 7.4. The media was further supplemented with penicillin and streptomycin (100 units/mL and 100 μg/ml, respectively) and 50 μg/mL L-ascorbic acid. The cartilage surfaces were exposed, and the synovial fluid was wiped away with sterile gauze. A sterile cork-borer with a diameter of 3.5 millimeters was used to remove uniform plugs of cartilage. Proper orientation was maintained by distinguishing the underlying bony layer in the plugs (only the articulating surface of the cartilage plugs were used in the experiments). The plugs were placed in a sterile flask, washed four times with 50 mL of fresh media, and then placed in an incubator (37 degrees centigrade, with 5% CO2 /95% air, with adequate humidity) and allowed to equilibrate for 1 hour. A 1 mm thick slice of the articulating surface was sliced off of each individual cartilage plug, using a specially designed template to obtain uniform thickness. The cartilage disks were then labeled en mass with ^35 Sulfate at a concentration of approximately 10 μCi/mL for approximately 72-96 hours, with hand-stirring every few hours. Subsequent to labeling, explants were equilibrated with fresh media each 48 hours. The total time for labeling/equilibration was approximately one week from acquisition/dissection of tissue.
(§4) For testing of ether derivatives, individual explants were transferred to 96-well plates containing 250μL of media with or without Plasminogen plus IL-1, and with or without ether derivative. […] All other groups in any assay would contain ether derivative along with concomitant plasminogen plus IL-1. Five samples were routinely used, with concentrations of plasminogen plus IL-1 of 0.4 μM and 0.5 ng/mL, respectively. The assay is allowed to incubate for 96 hours, prior to counting a 50 μL sample of supernatant from each well. A 50 μL sample of a papain digest of each explant is also counted for each respective well. From the counts released into the supernatant over four days, and the total counts present, the data can be expressed as % glycosaminoglycan (GAG) over the four days). The media alone % GAG release values are subtracted from all other values where plasminogen plus IL-1 were present (media alone represents the background for the system). […]

[3] = tested on: bovine articular cartilage explants; experiment: Interleukin-1 mediated cartilage degradation, with or without plasminogen (35S-GAG release); assay type: cell-based, bovine (calf); details: for degradation by plasminogen alone (in words): 0.4 μM human plasminogen alone
Procedure: as §1, §2, §3, §4

| Molecule | % Inhibition (of edema relative to PMA control) [1] [%] | Mean Edema (mgs ± SEM) [1] [mgs] | % Inhibition @ 30 μM (Explant) [2] | IC50 ([2]; Bos taurus, read-out: IC50) [µM] | also measured |
| --- | --- | --- | --- | --- | --- |
| CC(C)=C[C@H]1C[C@H](C)[C@H]2CC[C@H](C)c3c(O[C@@H]4OC[C@@H](O)[C@H](O)[C@H]4O)c(OCc4ccccc4)c(C)c1c32 [WF 332, Pseudopterosin A Benzyl ether] | 68.3 | 5.6 ± 1.0 | 57% | 26 |  |
| CCCCCOc1c(C)c2c3c(c1O[C@@H]1OC[C@@H](O)[C@H](O)[C@H]1O)[C@@H](C)CC[C@@H]3[C@@H](C)C[C@@H]2C=C(C)C [WF 333, Pseudopterosin A Pentyl ether] | 62.2 | 6.7 ± 1.0 | 58% | > 40 |  |
| CCCCCCCCCCOc1c(C)c2c3c(c1O[C@@H]1OC[C@@H](O)[C@H](O)[C@H]1O)[C@@H](C)CC[C@@H]3[C@@H](C)C[C@@H]2C=C(C)C [WF 334, Pseudopterosin A Decanyl ether] | 60.7 | 7.0 ± 0.9 | Inconclusive |  | IC50 [2]: Inconclusive |
| CCCCCCCCCCCCCCCCCCOc1c(C)c2c3c(c1O[C@@H]1OC[C@@H](O)[C@H](O)[C@H]1O)[C@@H](C)CC[C@@H]3[C@@H](C)C[C@@H]2C=C(C)C [WF 335, Pseudopterosin A Octadecanyl ether] | 54.4 | 8.0 ± 1.2 | 27% | > 30 |  |
| CC(C)=C[C@H]1C[C@H](C)[C@H]2CC[C@H](C)c3c(O[C@@H]4OC[C@@H](O)[C@H](O)[C@H]4O)c(OCCCCO)c(C)c1c32 [WF 336, Pseudopterosin A Butanol ether] | 69.9 | 5.3 ± 0.9 | 73% | 19 |  |
| CC(C)=C[C@H]1C[C@H](C)[C@H]2CC[C@H](C)c3c(O[C@@H]4OC[C@@H](O)[C@H](O)[C@H]4O)c(OCC(N)=O)c(C)c1c32 [WF 337, Pseudopterosin A Acetamide ether] | 52.6 | 8.4 ± 1.4 | 74% | 15 |  |
| bis pseudopterosin A pentanyl diether [WF 338] | 6.7 | 16.5 ± 1.2 | 0% |  | anti-inflammatory activity (in words) ([1]; mouse ear edema, comparison compound): little if any anti-inflammatory activity; inhibition of explant degradation (in words) ([2]; as can be seen from TABLE 2): inhibited explant degradation, except for WF 338; IC50 ([2]; read-out: IC50): > 30 µM |
| B1 |  |  |  |  | 35S-GAG release ([3]; IL-1-α 0.4 ng/mL plus plasminogen 0.4 μM, four day assay): approximately 50%; GAG release ([3]; IL-1-α 1 ng/mL plus 0.5 μM plasminogen): greater than 90%; increase in degradation over control ([3]; IL-1-α 2.5 ng/mL, without plasminogen): two-fold increase; release of 35S-labeled GAG ([3]; IL-1-α 10 ng/mL, without plasminogen): ~35%; dose dependence of degradation (in words) ([3]; IL-1-α, without plasminogen): induces degradation in bovine articular cartilage explants in a dose-dependent manner |
| B2 |  |  |  |  | degradation by plasminogen alone (in words) [3]: does not induce any degradation above control levels; degradation by plasminogen alone (in words) ([3]; listed as plasminogen): same results as media alone |
